The structures appear in SMILES notation. ≈ marks a conversion by molar mass, not a printed value. Like-named read-outs stand apart in the source and are kept apart here.

Data on twelve molecules can be found in PMC5869554 (CPT: Pharmacometrics & Systems Pharmacology, 2017).

Data set [1] in a line: Solubility in phosphate buffer at pH 7.4. It counts as physicochemical.
The nature of data set [2]: LogD7.4, octanol/water partition coefficient. It counts as physicochemical. The settings on record: for LogD7.4: aqueous phase at pH7.4; for logD: pH 7.4.
The next data set can be described thus: pKa determination. It counts as physicochemical.
Another data set concerns guinea pig trachea. Particulars: cited from earlier work.
The conditions of data set [3]: ref 8, 9; cited from earlier work.
Data set [4] deals with forced expiratory volume in 1 second (FEV1). The data set can be described thus: Clinical lung function. The settings on record: once daily dosing; glycopyrronium 25 µg, indacaterol 300 µg, batefenterol 800 µg; COPD patients. It is filed as in vivo, human.
Another data set has as its system human bronchi. Particulars: cited from earlier work.
The mark [5] stands for this setting: phosphate buffer, pH 7.4, aqueous buffer.
[6] abbreviates: pKa, second printed value (dibase).

By solubility is commonly meant the dissolved amount per volume that the medium holds. Lower therefore signals a poorly soluble substance. In general, pKa refers to the pH at which an ionisable group is half protonated. Turning to `CC(C)c1ncc(C(=O)N2CCOC3(CCN(Cc4ccc(F)c(CCNC[C@H](O)c5ccc(O)c6[nH]c(=O)sc56)c4)CC3)C2)s1` [AZD2115], the solubility in data set [1] (phosphate buffer at pH 7.4) is listed as 650 µM (≈ 435 µg/mL). Also, the LogD7.4 in data set [2] stood at 2.1. In addition, the pKa in the data set “pKa determination” was found to be 8.7; in the data set “pKa determination” (second printed value (dibase)), 7.6.
With `CCN(CC)CCN(CCNCCc1ccc(O)c2[nH]c(=O)sc12)C(=O)CCOCCc1cccc2ccccc12` [AZD3199], the solubility in data set [1] (phosphate buffer at pH 7.4) is recorded as 2,510 µM. The molecule also returned a LogD7.4 in data set [2] of 2.3. The pKa is 9.5 in “pKa determination” and 7.1 in the data set “pKa determination” (second printed value (dibase)). For the same molecule, the “In vitro guinea pig trachea pIC50” value with guinea pig trachea (ref 19) is 8.019. For the same molecule, the lung half lives entry in data set [3] is given as “in the order of days”.
Usually logD stands for lipophilicity at a set pH, counting ionised and neutral species. High values mean a more lipophilic compound, low ones a more hydrophilic compound. In data set [1] (setting [5]), `CNC(=O)c1cc(Cl)c(OC(C)(C)C(=O)O)cc1OC[C@@H](O)CN1CCC2(CC1)Cc1cc(Cl)ccc1O2` [AZD4818] gave a solubility of more than 2500 µM. Also, the logD in data set [2] worked out at 0.9. For the same molecule, the pKa in “pKa determination” (pKa) turned out to be 8.4; in “pKa determination” (setting [6]) it was 6.2.
Consider `COc1cc(NC(=O)CCN2CCC(OC(=O)Nc3ccccc3-c3ccccc3)CC2)c(Cl)cc1CNC[C@H](O)c1ccc(O)c2[nH]c(=O)ccc12` [Batefenterol, (R)‐1‐(3‐((2‐chloro‐4‐(((2‐hydroxy‐2‐(8‐hydroxy‐2‐oxo‐1,2‐dihydroquinolin‐5‐yl)ethyl)amino)methyl)‐5‐methoxyphenyl)amino)‐3‐oxopropyl)piperidin‐4‐yl [1,1'‐biphenyl]‐2‐ylcarbamate], for which the solubility in data set [1] (setting [5]) was 28 µM (≈ 20.7 µg/mL). In data set [2], this molecule showed a logD of 3.1. Also, the pKa stood at 10 in “pKa determination” (pKa) and 7.3 in “pKa determination” (setting [6]). In data set [4], the “associated increase in FEV1, single to multiple dosing” value (“associated increase in FEV1, single” for short) is on record as “around 100 mL”. Also, the “In vitro guinea pig trachea pIC50” value in the data set on guinea pig trachea (ref 26) is recorded as 8.026. Besides, in data set [3], the lung half lives entry is reported as “in the order of days”.
On to `COc1ccc(CC(C)NCC(O)c2ccc(O)c(NC=O)c2)cc1` (stereo not shown) [Formoterol], for which the “In vitro guinea pig trachea pIC50” value with guinea pig trachea (ref 19) was 8.819. In the data set on human bronchi (ref 23), the “In vitro human bronchi pIC50” value is 8.8.
For the molecule `C[N+]1(C)CCC(OC(=O)C(O)(c2ccccc2)C2CCCC2)C1` (stereo not shown) [Glycopyrronium], in data set [4], the “associated increase in FEV1, single” value was “around 40 mL”. For the same molecule, the “In vitro guinea pig trachea pIC50” value in the data set on guinea pig trachea (ref 25) was 9.025. In addition, the results for the “In vitro human bronchi pIC50” value with human bronchi (ref 24) and with human bronchi (ref 25) were 8.4 and 10.4, respectively.
On to `CCc1cc2c(cc1CC)CC(NC[C@H](O)c1ccc(O)c3[nH]c(=O)ccc13)C2` [Indacaterol], for which the solubility in data set [1] (setting [5]) is 25 µM (≈ 9.81 µg/mL). Further, in data set [2], the logD is 2.8. In “pKa determination” (pKa), this molecule returned a pKa of 8.3. The “associated increase in FEV1, single” value in data set [4] was “around 40 mL”. The “In vitro guinea pig trachea pIC50” value with guinea pig trachea (ref 19) is recorded as 7.719. The “In vitro human bronchi pIC50” value in the data set on human bronchi (ref 22) is reported as 6.6; in the data set on human bronchi (ref 24), 7.4.
As to `CC(C)[N+]1(C)[C@@H]2CC[C@H]1C[C@@H](OC(=O)C(CO)c1ccccc1)C2` (stereo partly shown) [Ipratropium], the “In vitro guinea pig trachea pIC50” value in the data set with guinea pig trachea (ref 25) was 8.625. In the data set on human bronchi (ref 25), the “In vitro human bronchi pIC50” value is 9.525.
For `CC(C)(C)NCC(O)c1ccc(O)c(CO)c1` (stereo not shown) [Salbutamol], the solubility in data set [1] (setting [5]) is more than 2900 µM. The same molecule showed a pKa in the data set “pKa determination” (pKa) of 9.2. The “In vitro guinea pig trachea pIC50” value with guinea pig trachea (ref 19) was 6.719. The “In vitro human bronchi pIC50” value is 6.4 in the data set with human bronchi (ref 21) and 6.9 with human bronchi (ref 22).
Regarding `OCc1cc(C(O)CNCCCCCCOCCCCc2ccccc2)ccc1O` (stereo not shown) [Salmeterol], the solubility in data set [1] (setting [5]) is more than 380 µM. The same molecule returned a pH-dependent lipophilicity (logD) in data set [2] of 2.2. In “pKa determination” (pKa), this molecule showed a pKa of 9.1. Also, the “In vitro human bronchi pIC50” value in the data set with human bronchi (ref 21) is recorded as 7.3; in the data set on human bronchi (ref 22), 8.1.
The molecule `CC(C)(C)NCC(O)c1cc(O)cc(O)c1` (stereo not shown) [Terbutaline] had a solubility in data set [1] (setting [5]) of 6830 µM (≈ 1540 µg/mL). This molecule also had a logD in data set [2] of -1.5. Also, the pKa in the data set “pKa determination” (pKa) was determined as 9.3.
As for `C[N+]1(C)[C@@H]2C[C@@H](OC(=O)C(O)(c3cccs3)c3cccs3)C[C@H]1[C@@H]1O[C@@H]12` [Tiotropium], the solubility in data set [1] (setting [5]) was more than 2800 µM. Further, in the data set with guinea pig trachea (ref 25), the “In vitro guinea pig trachea pIC50” value is reported as 9.125. For the same molecule, the “In vitro human bronchi pIC50” value in the data set with human bronchi (ref 25) was 9.525.
